Patent publication US6087119A, “Method for determining the catalytic activity of factor IXa” (Roche Diagnostics GmbH, priority 1996, dated 2000)

Assays:
Format in all cases: biochemical
rFIXa (human) [1] = target: T1, rFIXa (human) (Homo sapiens, UniProt P00740); experiment: Determination of the dissociation constant Ki according to DIXON, rFIXa; set-up: coding for the FIX protease domain from amino acid position 181 to 415; Met (ATG start codon) (N); made in house; conditions: pH 8.5, 33% ethylene glycol
Method: (§1) Determination of the Dissociation Constant Ki According to the Method of DIXON
(§2) 42 mmol/l Tris-HCl, pH 8.5
(§3) inhibitor in stepped concentrations (0, 20.4 and 40.8 μmol/l) […]
0.14 μmol/l rFIXa (human) […]
(§4) TIPPS-(3-Am)Phe-iNip-OH was used as the inhibitor and the inhibitory effect was determined as an example for two substrates under optimal conditions (pH 8.5, 33% ethylene glycol).

rFIXa (human) [2] = target: T1, rFIXa (human); experiment: Influence of known protease inhibitors on the activity of rFIXa; set-up: coding for the FIX protease domain from amino acid position 181 to 415; Met (ATG start codon) (N); made in house
Method: Specific FIXa inhibitors can be identified by the inhibition of FIXa activity. For this purpose the FIXa activity is determined with a substrate of the R-D-Xxx-Gly-Arg-pNA type (Xxx=hydrophobic amino acid) in the absence and presence of the substance to be tested or of a substance mixture and the percentage inhibition is calculated from the quotients. The inhibition constant Ki is determined from the inhibition kinetics. The measurement signal is amplified by the presence of high concentrations of certain alcohols (preferably ethylene glycol).
200 μl buffer (100 mmol/l Tris-HCl, 100 mmol/l NaCl, 5 mmol/l CaCl2, 20-40% alcohol, pH 7-9) the buffer contains the inhibitor at various concentrations […]
The reaction can also be terminated after 5-10 min by stopping with acetic acid (25 μl, 50%), the absorbance is determined at 405 nm against a reagent blank.
Influence of Known Protease Inhibitors on the Activity of rFIXa Using Different pHs, Alcohols and Alcohol Concentrations 42 mmol/l Tris-HCl, pH 7.4 or 8.5 substrate MeSO2 -D-CHG-Gly-Arg-pNA (1.02 mmol/l) […]
inhibitor at stepped concentrations (4.1-163 μmol/l)
Known synthetic inhibitors of the 3-amidinophenylalanine type were used as inhibitors (Sturzebecher et al, J. Enzyme. Inhibition 9 (1995) 87 and WO 92/08709) (1991)). The inhibitory effect was examined at a low and at a high alcohol concentration as an example.

native FIXa (human) = native FIXa (human) (Homo sapiens, UniProt P00740); experiment: Determination of the dissociation constant Ki according to DIXON, native FIXa; set-up: 0.14 μmol/l native FIXa (human); conditions: pH 8.5, 33% ethylene glycol; for 1/V: 0.07 μmol/l native FIXa
Method: as §1, §2, §3
0.07 μmol/l native FIXa (human)
as §4

T1 sequence (P00740 227-461 limits assumed): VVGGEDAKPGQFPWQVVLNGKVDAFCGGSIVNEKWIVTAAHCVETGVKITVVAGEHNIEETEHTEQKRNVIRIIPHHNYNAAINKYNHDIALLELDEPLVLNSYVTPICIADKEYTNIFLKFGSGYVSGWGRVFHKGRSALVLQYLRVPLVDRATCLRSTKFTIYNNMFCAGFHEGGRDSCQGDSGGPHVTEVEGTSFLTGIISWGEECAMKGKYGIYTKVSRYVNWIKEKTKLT
T1 sequence (P00740 131-226 limits assumed): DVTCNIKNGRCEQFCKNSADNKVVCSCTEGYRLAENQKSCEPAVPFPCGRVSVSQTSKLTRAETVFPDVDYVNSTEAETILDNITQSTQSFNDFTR
native FIXa (human), sequence (P00740 227-461 limits assumed): as the sequence (P00740 227-461 limits assumed) above
native FIXa (human), sequence (P00740 47-191 partner limits assumed): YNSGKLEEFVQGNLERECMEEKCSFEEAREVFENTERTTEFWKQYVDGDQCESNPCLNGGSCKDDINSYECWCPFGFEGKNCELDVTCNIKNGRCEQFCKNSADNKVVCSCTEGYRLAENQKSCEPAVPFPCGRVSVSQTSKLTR

CC(C)c1cc(C(C)C)c(S(=O)(=O)NC(Cc2cccc(C(=N)N)c2)C(=O)N2CCC(C(=O)O)CC2)c(C(C)C)c1 (stereo not drawn) [TIPPS-(3-Am)Phe-iNip-OH, Nα-(2,4,6-triisopropylbenzenesulfonyl)-3-amidino-(D,L)-phenylalanine-isonipecotic acid] showed a 1/V (rFIXa (human) [1]; inhibitor 20.4 μmol/l, MeSO2-D-CHG-Gly-Arg-pNA 0.25 μmol/l, 0.057 μmol/l rFIXa) of 78.1 min/mA, a 1/V (rFIXa (human) [1]; inhibitor 20.4 μmol/l, MeSO2-D-CHG-Gly-Arg-pNA 0.51 μmol/l, 0.057 μmol/l rFIXa) of 55.6 min/mA and a 1/V (rFIXa (human) [1]; inhibitor 20.4 μmol/l, MeSO2-D-CHG-Gly-Arg-pNA 1.02 μmol/l, 0.057 μmol/l rFIXa) of 23.8 min/mA. It also gave a 1/V (rFIXa (human) [1]; inhibitor 20.4 μmol/l, MeSO2-D-HHT-Gly-Arg-pNA 0.25 μmol/l, 0.14 μmol/l rFIXa) of 69.4 min/mA, a 1/V (rFIXa (human) [1]; inhibitor 20.4 μmol/l, MeSO2-D-HHT-Gly-Arg-pNA 0.51 μmol/l, 0.14 μmol/l rFIXa) of 43.5 min/mA and a 1/V (rFIXa (human) [1]; inhibitor 20.4 μmol/l, MeSO2-D-HHT-Gly-Arg-pNA 1.02 μmol/l, 0.14 μmol/l rFIXa) of 16.6 min/mA. The 1/V (rFIXa (human) [1]; inhibitor 40.8 μmol/l, MeSO2-D-CHG-Gly-Arg-pNA 0.25 μmol/l, 0.057 μmol/l rFIXa) was 153 min/mA, the 1/V (rFIXa (human) [1]; inhibitor 40.8 μmol/l, MeSO2-D-CHG-Gly-Arg-pNA 0.51 μmol/l, 0.057 μmol/l rFIXa) was 109 min/mA and the 1/V (rFIXa (human) [1]; inhibitor 40.8 μmol/l, MeSO2-D-CHG-Gly-Arg-pNA 1.02 μmol/l, 0.057 μmol/l rFIXa) was 44.6 min/mA. The 1/V (rFIXa (human) [1]; inhibitor 40.8 μmol/l, MeSO2-D-HHT-Gly-Arg-pNA 0.25 μmol/l, 0.14 μmol/l rFIXa) was 137 min/mA, the 1/V (rFIXa (human) [1]; inhibitor 40.8 μmol/l, MeSO2-D-HHT-Gly-Arg-pNA 0.51 μmol/l, 0.14 μmol/l rFIXa) was 90.9 min/mA and the 1/V (rFIXa (human) [1]; inhibitor 40.8 μmol/l, MeSO2-D-HHT-Gly-Arg-pNA 1.02 μmol/l, 0.14 μmol/l rFIXa) was 31.2 min/mA. For the same molecule, the Ki (rFIXa (human) [1]; rFIXa, substrate MeSO2-D-CHG-Gly-Arg-pNA) was 16 µM, the Ki (rFIXa (human) [1]; recombinant FIXa, substrate MeSO2-D-HHT-Gly-Arg-pNA) was 12 µM and the “Inhibition of the activity of factor IXa (in %)” value (from here on “Inhibition … (in %)”) (rFIXa (human) [2]; inhibitor 4.1 μmol/l, pH 7.4, 4.1% ethanol, 0.57 μmol/l rFIXa) was 89.5%. The “Inhibition … (in %)” value (rFIXa (human) [2]; inhibitor 4.1 μmol/l, pH 7.4, 33% ethylene glycol, 0.057 μmol/l rFIXa) was 86.9%, the “Inhibition … (in %)” value (rFIXa (human) [2]; inhibitor 4.1 μmol/l, pH 8.5, 4.1% ethanol, […] rFIXa) was 90.6% and the “Inhibition … (in %)” value (rFIXa (human) [2]; inhibitor 4.1 μmol/l, pH 8.5, 33% ethylene glycol, […] rFIXa) was 85.6%. For the same molecule, the “Inhibition … (in %)” value (rFIXa (human) [2]; inhibitor 8.2 μmol/l, pH 7.4, 4.1% ethanol, 0.57 μmol/l rFIXa) was 87.6%, the “Inhibition … (in %)” value (rFIXa (human) [2]; inhibitor 8.2 μmol/l, pH 7.4, 33% ethylene glycol, 0.057 μmol/l rFIXa) was 79.4% and the “Inhibition … (in %)” value (rFIXa (human) [2]; inhibitor 8.2 μmol/l, pH 8.5, 4.1% ethanol, […] rFIXa) was 85.2%. For the same molecule, the “Inhibition … (in %)” value (rFIXa (human) [2]; inhibitor 8.2 μmol/l, pH 8.5, 33% ethylene glycol, […] rFIXa) was 72.8%, the “Inhibition … (in %)” value (rFIXa (human) [2]; inhibitor 16.3 μmol/l, pH 7.4, 4.1% ethanol, 0.57 μmol/l rFIXa) was 76.2% and the “Inhibition … (in %)” value (rFIXa (human) [2]; inhibitor 16.3 μmol/l, pH 7.4, 33% ethylene glycol, 0.057 μmol/l rFIXa) was 61.7%. The “Inhibition … (in %)” value (rFIXa (human) [2]; inhibitor 16.3 μmol/l, pH 8.5, 4.1% ethanol, […] rFIXa) was 74.8%, the “Inhibition … (in %)” value (rFIXa (human) [2]; inhibitor 16.3 μmol/l, pH 8.5, 33% ethylene glycol, […] rFIXa) was 58.0% and the “Inhibition … (in %)” value (rFIXa (human) [2]; inhibitor 40.8 μmol/l, pH 7.4, 4.1% ethanol, 0.57 μmol/l rFIXa) was 55.8%. The “Inhibition … (in %)” value (rFIXa (human) [2]; inhibitor 40.8 μmol/l, pH 7.4, 33% ethylene glycol, 0.057 μmol/l rFIXa) was 38.9%, the “Inhibition … (in %)” value (rFIXa (human) [2]; inhibitor 40.8 μmol/l, pH 8.5, 4.1% ethanol, […] rFIXa) was 55.2% and the “Inhibition … (in %)” value (rFIXa (human) [2]; inhibitor 40.8 μmol/l, pH 8.5, 33% ethylene glycol, […] rFIXa) was 33.6%. The “Inhibition … (in %)” value (rFIXa (human) [2]; inhibitor 81.6 μmol/l, pH 7.4, 4.1% ethanol, 0.57 μmol/l rFIXa) was 36.3%, the “Inhibition … (in %)” value (rFIXa (human) [2]; inhibitor 81.6 μmol/l, pH 7.4, 33% ethylene glycol, 0.057 μmol/l rFIXa) was 21.2% and the “Inhibition … (in %)” value (rFIXa (human) [2]; inhibitor 81.6 μmol/l, pH 8.5, 4.1% ethanol, […] rFIXa) was 35.3%. The “Inhibition … (in %)” value (rFIXa (human) [2]; inhibitor 81.6 μmol/l, pH 8.5, 33% ethylene glycol, […] rFIXa) was 20.7%, the “Inhibition … (in %)” value (rFIXa (human) [2]; inhibitor 163 μmol/l, pH 7.4, 4.1% ethanol, 0.57 μmol/l rFIXa) was 23.8% and the “Inhibition … (in %)” value (rFIXa (human) [2]; inhibitor 163 μmol/l, pH 7.4, 33% ethylene glycol, 0.057 μmol/l rFIXa) was 15.0%. The “Inhibition … (in %)” value (rFIXa (human) [2]; inhibitor 163 μmol/l, pH 8.5, 4.1% ethanol, […] rFIXa) was 20.8%, the “Inhibition … (in %)” value (rFIXa (human) [2]; inhibitor 163 μmol/l, pH 8.5, 33% ethylene glycol, […] rFIXa) was 15.8% and the 1/V (native FIXa (human); inhibitor 20.4 μmol/l, MeSO2-D-HHT-Gly-Arg-pNA 0.25 μmol/l) was 129 min/mA. The 1/V (native FIXa (human); inhibitor 20.4 μmol/l, MeSO2-D-HHT-Gly-Arg-pNA 0.51 μmol/l) was 77.5 min/mA, the 1/V (native FIXa (human); inhibitor 20.4 μmol/l, MeSO2-D-HHT-Gly-Arg-pNA 1.02 μmol/l) was 29.5 min/mA and the 1/V (native FIXa (human); inhibitor 40.8 μmol/l, MeSO2-D-HHT-Gly-Arg-pNA 0.25 μmol/l) was 255 min/mA. It also gave a 1/V (native FIXa (human); inhibitor 40.8 μmol/l, MeSO2-D-HHT-Gly-Arg-pNA 0.51 μmol/l) of 154 min/mA, a 1/V (native FIXa (human); inhibitor 40.8 μmol/l, MeSO2-D-HHT-Gly-Arg-pNA 1.02 μmol/l) of 53.2 min/mA and a Ki (native FIXa (human); native FIXa, substrate MeSO2-D-HHT-Gly-Arg-pNA) of 9 µM.
